According to ChEMBL document CHEMBL1201862, “PubChem BioAssay data set” (2004):
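The compound was tested at five concentrations on cells cultured in 96-well plates, with a 48-hour exposure period. GI50 marks 50% less growth.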 Active and inactive are the calls of the source. Rule as the data show it: active = GI50 up to about 1.1 µM and inactive = higher.

Assays:
Assay in all cases: NCI tumour cell line growth inhibition, 48 h
EKVX = tested on: EKVX
NCI-H460 = tested on: NCI-H460
SW-620 = tested on: SW-620
LOX IMVI = tested on: LOX IMVI
Hs-578T = tested on: Hs-578T
SK-MEL-2 = tested on: SK-MEL-2
CAKI-1 = tested on: CAKI-1
MOLT-4 = tested on: MOLT-4
CCRF-CEM = tested on: CCRF-CEM
OVCAR-4 = tested on: OVCAR-4
OVCAR-5 = tested on: OVCAR-5
786-0 = tested on: 786-0
OVCAR-3 = tested on: OVCAR-3
A549 = tested on: A549
SF-539 = tested on: SF-539
NCI-H226 = tested on: NCI-H226
SK-MEL-5 = tested on: SK-MEL-5
COLO 205 = tested on: COLO 205
T47D = tested on: T47D
SN12C = tested on: SN12C
HL-60 = tested on: HL-60
MDA-MB-231 = tested on: MDA-MB-231
SK-OV-3 = tested on: SK-OV-3
UACC-62 = tested on: UACC-62
DU-145 = tested on: DU-145
NCI-H23 = tested on: NCI-H23
A498 = tested on: A498
HCT-116 = tested on: HCT-116
SR = tested on: SR
ACHN = tested on: ACHN
HOP-62 = tested on: HOP-62
K562 = tested on: K562
HT-29 = tested on: HT-29
SF-295 = tested on: SF-295
U-251 = tested on: U-251
SK-MEL-28 = tested on: SK-MEL-28
PC-3 = tested on: PC-3
UACC-257 = tested on: UACC-257
MDA-MB-435 = tested on: MDA-MB-435
MCF7 = tested on: MCF7
SNB-19 = tested on: SNB-19
NCI-H522 = tested on: NCI-H522
SNB-75 = tested on: SNB-75
NCI/ADR-RES = tested on: NCI/ADR-RES
OVCAR-8 = tested on: OVCAR-8
IGROV-1 = tested on: IGROV-1
HCT-15 = tested on: HCT-15
UO-31 = tested on: UO-31
BT-549 = tested on: BT-549
RPMI-8226 = tested on: RPMI-8226
TK-10 = tested on: TK-10
M14 = tested on: M14
MDA-N = tested on: MDA-N
RXF 393 = tested on: RXF 393
SF-268 = tested on: SF-268
HCC 2998 = tested on: HCC 2998
KM12 = tested on: KM12
Malme-3M = tested on: Malme-3M
HOP-92 = tested on: HOP-92

Nc1n[n+]([O-])c2cc([N+](=O)[O-])ccc2[n+]1[O-]
GI50 (EKVX): > 10 µM (inactive)
GI50 (NCI-H460): 3.31 µM (inactive)
GI50 (SW-620): 2.22 µM (inactive)
GI50 (LOX IMVI): 1.38 µM (inactive)
GI50 (Hs-578T): 11 µM (inactive)
GI50 (SK-MEL-2): 15 µM (inactive)
GI50 (CAKI-1): 4.33 µM (inactive)
GI50 (MOLT-4): 0.787 µM (active)
GI50 (CCRF-CEM): 1.62 µM (inactive)
GI50 (OVCAR-4): 3.43 µM (inactive)
GI50 (OVCAR-5): 21.2 µM (inactive)
GI50 (786-0): 4.63 µM (inactive)
GI50 (OVCAR-3): 1.93 µM (inactive)
GI50 (A549): 18.9 µM (inactive)
GI50 (SF-539): 4.74 µM (inactive)
GI50 (NCI-H226): 15.5 µM (inactive)
GI50 (SK-MEL-5): 7.71 µM (inactive)
GI50 (COLO 205): 3.85 µM (inactive)
GI50 (T47D): 3.95 µM (inactive)
GI50 (SN12C): 5.14 µM (inactive)
GI50 (HL-60): 2.2 µM (inactive)
GI50 (MDA-MB-231): 4.99 µM (inactive)
GI50 (SK-OV-3): 10.5 µM (inactive)
GI50 (UACC-62): 2.49 µM (inactive)
GI50 (DU-145): 16.3 µM (inactive)
GI50 (NCI-H23): 13.8 µM (inactive)
GI50 (A498): 15.9 µM (inactive)
GI50 (HCT-116): 2.9 µM (inactive)
GI50 (SR): 3.18 µM (inactive)
GI50 (ACHN): 3.35 µM (inactive)
GI50 (HOP-62): 6.81 µM (inactive)
GI50 (K562): 2.14 µM (inactive)
GI50 (HT-29): 2.53 µM (inactive)
GI50 (SF-295): 10.4 µM (inactive)
GI50 (U-251): 4.61 µM (inactive)
GI50 (SK-MEL-28): 29 µM (inactive)
GI50 (PC-3): 2.19 µM (inactive)
GI50 (UACC-257): 13.3 µM (inactive)
GI50 (MDA-MB-435): 1.75 µM (inactive)
GI50 (MCF7): 3.36 µM (inactive)
GI50 (SNB-19): 13.6 µM (inactive)
GI50 (NCI-H522): 2.07 µM (inactive)
GI50 (SNB-75): 26.7 µM (inactive)
GI50 (NCI/ADR-RES): 4.36 µM (inactive)
GI50 (OVCAR-8): 3.44 µM (inactive)
GI50 (IGROV-1): 2.87 µM (inactive)
GI50 (HCT-15): 3.14 µM
GI50 (UO-31): 10.5 µM (inactive)
GI50 (BT-549): 18.1 µM (inactive)
GI50 (RPMI-8226): 2.11 µM (inactive)
GI50 (TK-10): 30.2 µM (inactive)
GI50 (M14): 4.84 µM (inactive)
GI50 (MDA-N): 2.07 µM (inactive)

N#C/C(=C\c1ccc(Br)cc1)c1nc(-c2cc3ccccc3oc2=O)cs1
GI50 (RXF 393): 19.2 µM (inactive)
GI50 (EKVX): 13.3 µM (inactive)
GI50 (NCI-H460): 16.7 µM (inactive)
GI50 (SW-620): 19.8 µM (inactive)
GI50 (LOX IMVI): 24.8 µM (inactive)
GI50 (SF-268): 14.5 µM (inactive)
GI50 (Hs-578T): 11.5 µM (inactive)
GI50 (SK-MEL-2): 17.1 µM (inactive)
GI50 (CAKI-1): 48.4 µM (inactive)
GI50 (MOLT-4): > 50 µM (inactive)
GI50 (CCRF-CEM): 41.8 µM (inactive)
GI50 (OVCAR-4): 17.2 µM (inactive)
GI50 (OVCAR-5): 31 µM (inactive)
GI50 (HCC 2998): 19.6 µM (inactive)
GI50 (786-0): 17 µM (inactive)
GI50 (A549): 35.1 µM (inactive)
GI50 (SF-539): 14 µM (inactive)
GI50 (NCI-H226): 11.9 µM (inactive)
GI50 (KM12): 19.1 µM (inactive)
GI50 (SK-MEL-5): 21.8 µM (inactive)
GI50 (COLO 205): > 50 µM (inactive)
GI50 (T47D): 22.7 µM (inactive)
GI50 (SN12C): 20 µM (inactive)
GI50 (HL-60): > 50 µM (inactive)
GI50 (MDA-MB-231): 10.1 µM (inactive)
GI50 (SK-OV-3): 18.9 µM (inactive)
GI50 (UACC-62): 10.2 µM (inactive)
GI50 (DU-145): 15.7 µM (inactive)
GI50 (HCT-116): 17.5 µM (inactive)
GI50 (SR): 34 µM (inactive)
GI50 (Malme-3M): 10.5 µM (inactive)
GI50 (ACHN): 10.8 µM (inactive)
GI50 (HOP-62): 8.73 µM (inactive)
GI50 (K562): 37.2 µM (inactive)
GI50 (HT-29): 23.3 µM (inactive)
GI50 (SF-295): 18.5 µM (inactive)
GI50 (U-251): 9.93 µM (inactive)
GI50 (HOP-92): 11 µM (inactive)
GI50 (SK-MEL-28): 28.2 µM (inactive)
GI50 (PC-3): 21 µM (inactive)
GI50 (UACC-257): 11.7 µM (inactive)
GI50 (MDA-MB-435): 23.5 µM (inactive)
GI50 (MCF7): 18.4 µM (inactive)
GI50 (SNB-19): 10.7 µM (inactive)
GI50 (NCI-H522): 7.98 µM (inactive)
GI50 (SNB-75): 7.14 µM (inactive)
GI50 (NCI/ADR-RES): 11.9 µM (inactive)
GI50 (OVCAR-8): 15.9 µM (inactive)
GI50 (IGROV-1): 12.3 µM (inactive)
GI50 (HCT-15): 32.1 µM
GI50 (UO-31): 20.2 µM (inactive)
GI50 (BT-549): 7.29 µM (inactive)
GI50 (RPMI-8226): 44.1 µM (inactive)
GI50 (TK-10): 10.2 µM (inactive)
GI50 (M14): 14.9 µM (inactive)
GI50 (MDA-N): 17.7 µM (inactive)
